Like-named read-outs stand apart in the source and are kept apart here.
What was measured:
seizurogenic activity [1] = tested on: seizurogenic activity
seizurogenic activity [2] = conditions: mouse, in vivo
in vitro = in vitro ADME; conditions: human, microsomes, pH 7.4
spontaneous ambulation = format: in vivo, C57BL6/J mice; conditions: C6-Quino 30 mg/kg s.c.; morphine 10 or 30 mg/kg s.c.
respiration rate = format: in vivo, C57BL6/J mice; conditions: 30 mg/kg sc

TAN67
seizures after intracerebroventricular dosing (seizurogenic activity [1]; 100 nmol i.c.v.): caused robust seizures

SNC80
seizures after intracerebroventricular dosing (seizurogenic activity [1]; mouse, in vivo): caused robust seizures
duration of seizures (seizurogenic activity [2]): 20 min
seizures after sc dosing (seizurogenic activity [2]): produced robust seizures

CCN(CC)CCNC(=O)c1c(C)[nH]c(/C=C2\C(=O)Nc3ccc(F)cc32)c1C [Sunitinib]
half-life (in vitro): 27 min

CN1CC[C@]23c4c5ccc(O)c4O[C@H]2[C@@H](O)C=C[C@H]3[C@H]1C5 [morphine]
locomotion (spontaneous ambulation): significant increase in locomotion above baseline
breath rate (respiration rate): showed respiratory depression

Source: PMC11906898 (Nature Communications, 2025)
